Consider six compounds from publication PMC11945201, “Enhancing the Oral Bioavailability of Glutathione Using Innovative Analogue Approaches” (Pharmaceutics, 2025).

Data set [1] deals with Caco-2, Fibroblast, and HT29-MTX-E12 cells. The data set is described as follows: Cytotoxicity by MTT cell viability. It counts as cell-based. The note with it: 24 h incubation, cell line not split in table (Caco-2, Fibroblast, HT29-MTX-E12), highest usable concentration 3.25 mmolL^−1. The method, then:
All cell culture studies were conducted in aseptic conditions. Incubation was maintained at an atmosphere of 37.0 °C, 5% CO2, and 95% relative humidity. The caco-2 cells were grown in complete Dulbecco’s modified Eagle’s medium (DMEM), which was prepared by adding 10% foetal bovine serum (FBS), 1% penicillin-streptomycin (P-S), and 1% non-essential amino acids (NEAA) to sterile DMEM. Cells were cultured in T-25 and T-75 tissue culture flasks, and the medium was exchanged every 3 days until 90% confluence was reached. Cells were detached and subcultured with 0.25% Trypsin-EDTA. The suspended cell concentration was determined by cell counting.
Cytotoxicity was measured by measuring cell viability using MTT. Then, 90% confluent cells were detached by 0.25% trypsin-EDTA, which were then counted and seeded into sterile 96-well plates. Caco-2 cells were seeded into 96-well plates at a density of 100,000 cells per well and incubated for 24 h prior to the experiment. Fibroblast cells were seeded into 96-well plates at a density of 10,000 cells per well and incubated for 24 h prior to the experiment. HT-29 cells were seeded into 96-well plates at a density of 10,000 cells per well and incubated for 24 h prior to the experiment. The supernatant in each well were discarded and the attached cells were washed using serum-free Fluorobite^TM DMEM twice to remove any phenol red. The peptide, at concentrations of 10 mgmL^−1, 1 mgmL^−1, 0.1 mgmL^−1, 0.01 mgmL^−1, 0.001 mgmL^−1, and 0.0001 mgmL^−1 were dissolved in serum-free Fluorobite^TM DMEM. The total volume of sample in each well used was 100 μL. The cells were incubated with the peptide for 24 h. Cells were also incubated with serum-free DMEM (positive control) and 2% Triton-X (negative control) for 24 h. The supernatant in each well was then discarded and washed using serum-free Fluorobite^TM DMEM. MTT (100 μL, 1.2 mmolL^−1) dissolved in Fluorobite^TM DMEM was then added to each well and incubated for 2 h for MTT conversion into formazan. The supernatant was then discarded, and the cells were washed using Fluorobite^TM DMEM to remove any residual MTT and formazan that were not attached to cellular mitochondria. Formazan was dissolved in dimethyl sulfoxide (DMSO) (50 μL), and the absorbance was measured on a microplate reader at a wavelength of 570 nm. Cell viability was expressed as a percentage of the positive control and calculated as follows (where Aexp is the absorbance at 570 nm of the experimental group, Aneg is the absorbance at 570 nm of the negative control, and Acon is the cell viability of the positive control): Cell viability = (Aexp − Aneg)/(Acon − Aneg).

The test system of data set [2] is glutathione reductase (GR) and glutathione peroxidase (GPx). The data set is described as follows: Glutathione reductase and glutathione peroxidase coupled assay (NADPH, 340 nm). The class given is biochemical, yeast (GR), bovine (GPx). Conditions: for GT/GPx Activity > 50%: yes/no, more than 50% considered retaining GR and GPx activity; for activity with GPx and GR enzymes (in words): qualitative analysis. On the procedure: The activity of GR can be measured by monitoring the rate of decrease in absorbance of its substrate, NADPH, which absorbs light of 340 nm in the presence of a second substrate, i.e., oxidised GSH. […] In the presence of peroxides, reduced GSH can be oxidised by the enzyme GPx while reducing the peroxide. […] The NADPH solution (10 μL, 5 mmolL^−1), GPx enzyme solution (10 μL, 0.25 UmL^−1), and GR enzyme solution (10 μL, 10 UmL^−1) were also added to the reaction mixture. The reaction was initiated by the addition of tBu-OOH (2 μL, 30 mmolL^−1), and the decrease in absorbance at 340 nm was recorded by a microplate reader every 10 secs for one minute. […] A GR and GPx activity more than 50% was considered as retaining GR and GPx activity.

The subject of data set [3] is glutathione S-transferase (GST). The data set can be described thus: Glutathione S-transferase assay (CDNB conjugation, absorbance 340 nm). It counts as biochemical, equine. The note with it: for GST Activity > 50%: yes/no, compared to GSH, more than 50% considered retaining GST activity; for activity/efficacy with GST enzyme (in words): qualitative analysis. On the procedure:
The degree of conjugation of GSH or novel compounds to a substrate catalysed by GST can be monitored […] by conjugation with the substrate 1-chloro-2,4-dinotrobenzene (CDNB) to a thiol group. Successful conjugation results in the formation of a S-DNB conjugate, which strongly absorbs at 340 nm.
A stock solution of GSH and novel compounds (0.0315 mmolL^−1) were prepared. GSH or novel compounds (26 µL) were added to a mixture of pH = 7.4 DPBS (170 µL), CDNB (2 µL, 100 mmolL^−1), and GST enzyme (2 µL, 25 UmL^−1) to initiate the reaction. The rate of increase in absorbance at 340 nm was monitored every minute over a 10 min period. The rate of increase in absorbance at 340 nm was calculated by the following equation (Equation (1)), where ΔA340 is the change in absorption at 340 nm per minute:(1) ΔA340=A340(final)–A340(initial)/t.
The rate of increase in absorption at 340 nm was correlated to the specific activity of GST using the following equation (Equation (2)):(2) ΔA340×V/εmM ×Venz=Specific activity of GST, where the extinction coefficient εmM for a 96-well plate of a path length of 0.5 cm is 5.3 mmolL^−1cm^−1; Venz is the volume of the GST enzyme sample used (2 µL); and V is the total volume used ([…]). […] A GST activity more than 50% was considered as retaining GST activity.

A further data set has as its system Fibroblast cells. The data set can be described thus: UV rescue of UVA-irradiated fibroblast cells (MTT). It counts as cell-based. The note with it: for cell viability versus untreated groups (in words): UV rescue; for % Cell Viability (with UV): UVA 1 h, then peptide 0.0325 mmolL^−1, 24 h. On the procedure: (§1) Fibroblast cells were seeded into 96-well plates at a density of 10,000 cells per well determined by cell counting. Cells were allowed to settle and attach for 24 h before the addition of peptides. The supernatant in each well was discarded, and the attached cells were washed using serum-free DMEM twice. One group of cells was exposed to UVA under a UV lamp for 1 h. A second group of cells was not exposed to UV irradiation. The supernatant was removed from each well of both groups and replaced with peptide (100 μL, 0.0325 mmolL^−1), which was then dissolved in Fluorobite^TM DMEM. Each plate, including 2 wells of both groups was also incubated with serum-free DMEM (positive control) and 2% Triton-X (negative control) for 24 h. The supernatant in each well of both groups was then discarded and the cells washed using PBS. MTT (100 μL, 6 mmolL^−1) that was dissolved in HBSS was then added to each well and incubated for 2 h for MTT conversion into formazan. The supernatant was then discarded, and the cells were washed using PBS to remove any residual MTT and formazan that were not attached to the cellular mitochondria. Formazan was dissolved in DMSO (50 μL), and the absorbance was measured on a microplate reader at a wavelength of 570 nm.

In data set [4] the test system is γ-glutamyl transferase (GGT). The class given is in vitro ADME, equine. The note with it: for % Degradation by GGT: horse, 100 μgmL^−1, pH 9. The method, then: Each compound and GSH (100 μgmL^−1, 0.0315 molL^−1) was added to each reaction vessel containing phosphate buffer solution (800 μL, pH 9.0). The reaction vessels were incubated at 37 °C with shaking for the entire duration of the experiment. Reaction was initiated by the addition of GGT enzyme solution (100 μL, 10 UmL^−1). […] The degradation rate of the novel compounds analysed by HPLC were compared with that of GSH. […] A GGT degradation less than 50% was considered resistance to GTT activity.

The nature of data set [5]: UV rescue of UVA-irradiated fibroblast cells (MTT). The class given is cell-based. Conditions: peptide 0.0325 mmolL^−1, 24 h, no UV, mean ± SD, n = 6, read-out: % Cell Viability (no UV). On the procedure:
as §1

SMILES strings stand for the structures.

As for `N[C@@H](CCC(=O)N[C@@H](CS)C(=O)NCC(=O)O)C(=O)O` [Compound 1.61], in data set [1], the half-maximal inhibitory concentration (IC50) was greater than 3.25 mM. Besides, the “GT/GPx Activity > 50%” value in data set [2] is listed as “✔ (✔: yes)”. The “GST Activity > 50%” value in data set [3] is listed as “✔ (✔: yes)”. Moreover, in the data set on Fibroblast cells, the “cell viability versus untreated groups (in words)” value is recorded as “significantly higher cell viability than the untreated groups”. In addition, in the data set on Fibroblast cells (mean ± SD, n = 6), the “% Cell Viability (with UV)” value is recorded as 69.0 ± 0.6%. In addition, the “% Cell Viability (no UV)” value in the data set with Fibroblast cells (peptide 0.0325 mmolL^−1, 24 h, no UV, mean ± SD, n = 6) is given as 74.3 ± 2.0%. In addition, in data set [4], the “% Degradation by GGT” value was found to be 100%.

For `N[C@@H](CCC(=O)N[C@H](CS)C(=O)NCC(=O)O)C(=O)O` [Compound 1.62], the half-maximal inhibitory concentration (IC50) in data set [1] (Homo sapiens) was greater than 3.25 mM. Moreover, in data set [2], the “activity with GPx and GR enzymes (in words)” value is given as “loss of activity”; the “GT/GPx Activity > 50%” value was “X (X: no)”. Besides, in data set [3], the “activity/efficacy with GST enzyme (in words)” value (shortened to “activity/efficacy”) is listed as “lost detoxification efficacy” and the “GST Activity > 50%” value was “X (X: no)”. In data set [5], the viability at 24 h, 0.0325 mmolL^−1 was 112 ± 5.5%. Besides, the “cell viability versus untreated groups (in words)” value with Fibroblast cells is listed as “significantly higher cell viability than the untreated groups”. Moreover, the “% Cell Viability (with UV)” value in the data set on Fibroblast cells (mean ± SD, n = 6) was determined as 70.8 ± 5.7%. Further, in data set [4], the “GGT degradation compared to GSH (in words)” value is reported as “less than half the rate of GGT degradation” and the “% Degradation by GGT” value worked out at 82.3%.

As for `N[C@H](CCC(=O)N[C@@H](CS)C(=O)NCC(=O)O)C(=O)O` [Compound 1.63], in data set [1] (Homo sapiens), the IC50 was greater than 3.25 mM. In data set [2], the “activity with GPx and GR enzymes (in words)” value is recorded as “retained activity”; the “GT/GPx Activity > 50%” value is “✔ (✔: yes)”. Also, in data set [3], the “activity/efficacy” value is listed as “lost detoxification efficacy” and the “GST Activity > 50%” value is recorded as “X (X: no)”. In addition, in data set [5], the viability at 24 h, 0.0325 mmolL^−1 was 137 ± 16.1%. For the same compound, in the data set with Fibroblast cells, the “cell viability versus untreated groups (in words)” value is on record as “significantly higher cell viability than the untreated groups”. Besides, the “% Cell Viability (with UV)” value in the data set with Fibroblast cells (mean ± SD, n = 6) came out at 101.1 ± 5.2%. Further, in data set [4], the “GGT degradation compared to GSH (in words)” value was “less than half the rate of GGT degradation” and the “% Degradation by GGT” value is listed as 72.7%.

For `N[C@H](CCC(=O)N[C@H](CS)C(=O)NCC(=O)O)C(=O)O` [Compound 1.64], in data set [1] (Homo sapiens), the 50% inhibitory concentration (IC50) is greater than 3.25 mM. Also, in data set [2], the “activity with GPx and GR enzymes (in words)” value is reported as “loss of activity”; the “GT/GPx Activity > 50%” value is reported as “X (X: no)”. In data set [3], the “activity/efficacy” value was “retained the detoxification effectiveness” and the “GST Activity > 50%” value was “✔ (✔: yes)”. In addition, in data set [5], the viability at 24 h, 0.0325 mmolL^−1 came out at 128 ± 7.9%. Further, in the data set on Fibroblast cells, the “cell viability versus untreated groups (in words)” value is recorded as “significantly higher cell viability than the untreated groups”. For the same compound, the “% Cell Viability (with UV)” value in the data set with Fibroblast cells (mean ± SD, n = 6) was found to be 98.5 ± 7.1%. In data set [4], the “GGT degradation compared to GSH (in words)” value was “less than half the rate of GGT degradation” and the “% Degradation by GGT” value turned out to be 60.2%.

Turning to `CN(CC(=O)O)C(=O)[C@H](CS)NC(=O)CC[C@H](N)C(=O)O` [Compound 1.65], the midpoint of inhibition in data set [1] (Homo sapiens), the IC50, lay at 0.984 mM. In addition, in data set [2], the “activity with GPx and GR enzymes (in words)” value is listed as “retention of activity”; the “GT/GPx Activity > 50%” value is reported as “✔ (✔: yes)”. In data set [3], the “activity/efficacy” value was “loss of activity” and the “GST Activity > 50%” value is on record as “X (X: no)”. Besides, the viability at 24 h, 0.0325 mmolL^−1 in data set [5] is 58.8%. Besides, the “cell viability versus untreated groups (in words)” value in the data set with Fibroblast cells is listed as “significantly higher cell viability than the untreated groups”. Besides, the “% Cell Viability (with UV)” value with Fibroblast cells (mean ± SD, n = 6) is 69.3 ± 26.6%. For the same compound, in data set [4], the “GGT degradation compared to GSH (in words)” value is reported as “did not show a decrease in degradation” and the “% Degradation by GGT” value is 122.2%.

As to `CN[C@@H](CCC(=O)N[C@@H](CS)C(=O)NCC(=O)O)C(=O)O` [Compound 1.71], in data set [2], the “activity with GPx and GR enzymes (in words)” value was “retention of activity”; the “GT/GPx Activity > 50%” value is given as “✔ (✔: yes)”. In addition, in data set [3], the “activity/efficacy” value is reported as “loss of activity” and the “GST Activity > 50%” value is “X (X: no)”. In addition, the viability at 24 h, 0.0325 mmolL^−1 in data set [5] is 79.5 ± 10.2%. In the data set on Fibroblast cells, the “cell viability versus untreated groups (in words)” value is “significantly higher cell viability than the untreated groups”. The “% Cell Viability (with UV)” value in the data set on Fibroblast cells (mean ± SD, n = 6) was determined as 97.0 ± 5.5%. Besides, the “% Degradation by GGT” value in data set [4] was 11.7%.
